From a melting point compilation (Tetko et al.; mined from patent text by program, amines drawn as free bases though some values may be those of a salt) come the findings set out here.

`O=c1c2cc(O)ccc2[nH]c2c([N+](=O)[O-])cc([N+](=O)[O-])c(Cl)c12` had a melting point of 278 to 281 °C.

As to `O=C(O)C=C1CC(C(=O)OCc2ccccc2)Nc2cc(Cl)cc(Cl)c21` (racemic), the melting point was in the range of 210 to 212 °C.

For `O=C(c1cccc(Cl)n1)c1ccc(Cl)cc1Cl`, the melting point was 103 to 104 °C.

`COC(=O)c1cccc(C(=O)NC2N=C(c3ccccc3F)c3ccccc3N(CC(=O)N3CC4CCC(CC4)C3)C2=O)c1` (racemic): the melting point lay in the range of 166 to 177 °C.

Turning to `CC(C)(C)[Si](C)(C)Oc1ccc2c(c1)OC(O)c1c-2ccc2cc(O[Si](C)(C)C(C)(C)C)ccc12` (stereo unspecified), the melting point was in the range of 188 to 190 °C.

In turn, `CCCCCCCCCCOc1ccc(C(=O)NNC(=O)C(F)(F)C(F)(F)C(F)(F)F)cc1` returned a melting point of 88 °C.

In turn, `COc1c(C=CC(=O)O)cccc1Oc1ccccc1C` had a melting point of 143 to 146 °C.

On to `CS(=O)(=O)c1ccc(N2CC(O)(C(F)(F)F)N=C2c2ccncc2)cc1` (stereo unspecified), for which the melting point was found to be 219 °C.

The compound `CCCCn1c(COCC)nc2c(N)nc3ccc(Br)cc3c21` returned a melting point of 182 to 183 °C.

In turn, `Cc1onc(C(C)(O)c2ccccc2)c1NC(=O)CCl` (stereo unspecified) showed a melting point of 130 to 132 °C.

Compound `Cc1c2n(c3ccc(Br)cc13)CCCC2O` (stereo unspecified) showed a melting point of 120 to 123 °C.

The compound `O=C(CCc1ccccc1)Cn1ccnc1` gave a melting point of 172 to 173 °C.

`COC(=O)c1nn(-c2cccc(C(F)(F)F)c2)cc(OC)c1=O` returned a melting point of 169 to 170 °C.

The compound `COC1=CC=C2C3Cc4ccc(O)c5c4C2(CCN3C)C1O5` (stereo unspecified) showed a melting point of 114 to 116 °C.

For `O=C(O)[C@H](CC1CC1)N1C(=O)NC(C(F)(F)F)(C(F)(F)F)C1=O`, the melting point lay in the range of 123 to 125 °C.

`O=C(Nc1ccc(C(=O)N2CCC=Cc3ccccc32)cc1)c1ccccc1Cl` yielded a melting point of 205 to 207 °C.

`Cc1ccc(C(=O)NCc2cc(C(C)C)no2)cc1`: the melting point was 107 to 116 °C.

For the compound `O=C(O)CCc1cnoc1-c1ccc(F)cc1F`, the melting point fell in the range of 125 to 126 °C.

Turning to `CNC(=O)OCCOc1cc(-n2c(=O)cc(C(F)(F)F)n(C)c2=O)c(F)cc1Cl`, the melting point was in the range of 173 to 175 °C.

`COC(=O)COc1ccc(C[C@H](NC(=O)OC(C)(C)C)C(=O)O)cc1`: the melting point fell in the range of 75 to 79 °C.

For the compound `O=C(NNC(=O)c1occ(-c2ccccc2)c1-c1ccccc1)c1ccoc1`, the melting point is 180 to 183 °C.

The compound `CCn1cc(C(=O)O)c(=O)c2cc(F)c(N3CCC(NC(C)=O)C3)nc21` (stereo unspecified) registered a melting point of 283 to 284 °C.

`CCCCCCCCCCCCn1nnc(C(=O)O)n1` showed a melting point of 122 to 124 °C.

`O=C(O)c1cc2c(Cl)ncnc2s1` had a melting point of over 265 °C.

With `CCCCCCCCCCCCCCCCCCOCC(O)COC(c1ccccc1)(c1ccccc1)c1ccccc1` (stereo unspecified), the melting point lay in the range of 53 to 55 °C.

Compound `O=[N+]([O-])c1ccc2c(c1)ncn2-c1ccccc1` gave a melting point of 129 to 131 °C.

`CO/N=C(/C(N)=O)c1ccccc1COC(C)=O` displayed a melting point of 121 to 123 °C.

In turn, `COC(=O)/C=C/c1ccc2c(c1)C(C)(C)CC(=O)N2` had a melting point of 174 to 175 °C.

Take `Cc1cc(=O)[nH]c(=O)n1C1OC(CO)C(O)C1O` (stereo unspecified): the melting point is 175 to 177 °C.

For `CC(C)[C@@H]1CC[C@@H](C)C[C@@]1(O)CO`, the melting point was 48 to 50 °C.

In turn, `CCSc1nn2c(-c3ccc(OC)cc3)nnc2c2ccccc12` came in with a melting point of 176 to 178 °C.

In turn, `CCNC(=O)Nc1ccc2c(c1)C(=O)N(CCO[N+](=O)[O-])CO2` yielded a melting point of 142 to 144 °C.

Turning to `CC(O)Cc1nc(Cl)ccc1N` (stereo unspecified), the melting point fell in the range of 118 to 121 °C.

`BrCCCNC(c1ccccc1)(c1ccccc1)c1ccccc1` showed a melting point of 100 to 102 °C.

Regarding `COCC1CN(c2ccc3cc(OCCS(C)(=O)=O)ccc3c2)C(=O)O1` (stereo unspecified), the melting point lay within 128 to 129 °C.

Consider `COc1cc(Nc2c(C#N)cnc3cc(-c4ccc(CN5CCC(O)CC5)cc4)sc23)c(Cl)cc1Cl`, for which the melting point lay within 149 to 150 °C.

On to `O=[N+]([O-])c1ccc(Oc2c(Cl)cc(C(F)(F)F)cc2Cl)cc1S(=O)(=O)c1cc[nH]n1`, for which the melting point was determined as 159 °C.

In the case of `COc1ccc2c(c1)c(CC(=O)O)c(C)n2C(=O)c1ccc([N+](=O)[O-])o1`, the melting point is 178 to 180 °C.

In turn, `OC1(C(Cl)Cl)O[C@H](COCc2ccccc2)[C@@H](OCc2ccccc2)[C@H](OCc2ccccc2)[C@H]1OCc1ccccc1` (stereo partly specified) returned a melting point of 72 to 73 °C.

`CCOC(=O)CNC(=O)[C@H](Cc1ccc(O)cc1)NC(=O)[C@H](CO)NC(=O)[C@H](Cc1c[nH]c2ccccc12)NC(=O)[C@H](Cc1c[nH]cn1)NC(=O)[C@@H]1CCC(=O)N1` displayed a melting point of 218 to 220 °C.

The compound `CC(C)(C)OC(=O)N1CCC(C=C(Br)Br)CC1` showed a melting point of 82.3 to 83.9 °C.

As to `CC(=O)NC(=N)NCCSCc1[nH]cnc1C`, the melting point lay within 163 to 164 °C.

`C[C@]1(CN2CCC(NC(=O)Nc3ccc(C(F)(F)F)cc3)CC2)Cn2cc([N+](=O)[O-])nc2O1` yielded a melting point of 137 to 140 °C.

`CCOC(=O)/C=C(C)/C(F)=C/C=C(C)/C=C/c1c(Cl)cc(OC)c(C)c1Cl`: the melting point was 127 to 132 °C.

`CC(=O)NC1=C(O)CC(C(=O)N(C)C)CC1=O` (stereo unspecified) yielded a melting point of 162 to 164 °C.

Take `C[C@@H]1CN(c2ccc(-c3[nH]nc4c3C(=O)c3c(NC(=O)NN5CCOCC5)cccc3-4)cc2)C[C@H](C)N1C`: the melting point worked out at 240 °C.

The compound `Cc1c(C)c2c(c(C)c1O)CCC(C)(CCOc1ccc(CC3SC(=O)NC3=O)cc1)O2` (stereo unspecified) had a melting point of 152 to 154 °C.

Compound `CSCC(C)(CN)C(=O)N(C)c1nnc(-c2cncc(F)c2)s1` (stereo unspecified) had a melting point of 154 to 157 °C.

Compound `C=C(C)C(=O)OCCOC(Cl)C(Cl)(Cl)Cl` (stereo unspecified) showed a melting point of 44 to 45 °C.

As for `Cc1cc(C2=Nn3cnnc3SC2c2ccc(F)cc2)nc2c1OCC(=O)N2` (stereo unspecified), the melting point lay in the range of 256 to 257 °C.

In turn, `O=C1CCC(N2C(=O)c3ccc(CNCc4cc5ccccc5o4)cc3C2=O)C(=O)N1` (stereo unspecified) registered a melting point of 133 to 135 °C.

Turning to `COc1ccc(F)c(OC)c1-c1ccc(C[C@H](NC(=O)c2c(Cl)cccc2Cl)C(=O)O)cc1`, the melting point was in the range of 228 to 229 °C.

`C=CCOc1cc(Br)ccc1C(C)=NO` registered a melting point of 115 °C.

Compound `CCOC(=O)NC(C(=O)NN(Cc1ccc(-c2nccs2)cc1)CC(O)C(Cc1ccccc1)NC(=O)C(NC(=O)OC)C(C)CC)C(C)C` (stereo unspecified) displayed a melting point of 209 to 211 °C.

Take `O=C(O)c1ccc(CCc2ccc(NC(=O)C3CSc4ccccc4C3=O)cc2)cc1` (stereo unspecified): the melting point is 256 to 259 °C.

As to `O=C(N[C@H](Cc1ccccc1)C(=O)O)OCc1ccc(COc2ccccc2)cc1`, the melting point lay in the range of 116 to 117 °C.

`CC(C)CC1=CC(c2cccc([N+](=O)[O-])c2)C2=C(CCCC2=O)N1` (stereo unspecified): the melting point was 158 to 160 °C.

`O=Cc1cc2n(n1)CCOC2=O`: the melting point was 135 to 136 °C.

`COc1nc(C(F)(F)C(F)(F)F)cc(=O)n1-c1cc(OC(C)C)c(Cl)cc1F` showed a melting point of 79 to 81 °C.

Regarding `O=C(Cc1ccccc1C(=O)O)Nc1cccc(/C=C/c2nc(C3CCCC3)cs2)c1`, the melting point is 209 to 210 °C.

For the compound `Oc1ccc(-c2nc(COc3ccc(CCCn4ccnc4)cc3)co2)cc1`, the melting point fell in the range of 182 to 183 °C.

Consider `O=P(O)(O)CC(O)CNO` (stereo unspecified), for which the melting point fell in the range of 153 to 155 °C.

In turn, `Cc1ccc(S(=O)C(C(=O)OC(C)(C)C)C(O)c2ccc(Oc3ccccc3)cc2)cc1` (stereo unspecified) had a melting point of 126 to 128 °C.

As for `Cc1ccc2c(c1)oc1c(C(=O)NC3C4CC5CC(C4)CC3C5)nn(-c3ccc(Cl)cc3Cl)c12` (stereo unspecified), the melting point lay within 209 to 211 °C.

Consider `O=Cc1cn(C(c2ccccc2)(c2ccccc2)c2ccccc2)cn1`, for which the melting point is 186 to 194 °C.

In turn, `CCOC(=O)c1sc(SC)c(C(=O)CC(C)=O)c1C` had a melting point of 51 to 52 °C.

For `CCc1cccc(CC)c1NC(=O)CN`, the melting point is 70 to 71 °C.

Take `Cc1ccc(SC2OC(COC(=O)c3ccccc3)C(O)C(OC(=O)c3ccccc3)C2OC(=O)c2ccccc2)cc1` (stereo unspecified): the melting point amounted to 197 °C.

The compound `Cc1cc(CNC2CC2)cc(C)c1Oc1ccc([N+](=O)[O-])c(Nc2ccc(C#N)cc2)n1` showed a melting point of 175 to 177 °C.

Regarding `NC(=O)c1nc(-c2cccc(O)c2)nc2c1[nH]c(=O)n2Cc1ccccc1`, the melting point was 362 to 366 °C.

`CN(CCCCP(=O)(O)O)S(=O)(=O)C(F)(F)C(F)(F)C(F)(F)C(F)(F)C(F)(F)C(F)(F)C(F)(F)C(F)(F)F`: the melting point was in the range of 150 to 163 °C.

`CC(=O)Nc1cc(C=CN(C)C)c([N+](=O)[O-])cn1` returned a melting point of 193 to 196 °C.

`Cc1ccc(S(=O)(=O)NCC(CC(=O)Nc2ccccc2)c2ccc(Cl)cc2)cc1` (stereo unspecified) came in with a melting point of 200 to 202 °C.

Compound `COc1ccc(C(=O)Nc2ccccc2)cc1NCc1cc(F)cc(F)c1` yielded a melting point of 175 to 177 °C.

Compound `Cc1nc(N2CCc3ccccc3CC2)c(C#N)c(=O)n1CC=C(F)F` showed a melting point of 158 to 159 °C.

As to `COC(=O)N1Cc2c(-c3ccc(F)cc3)ncn2-c2ccccc21`, the melting point lay within 156 to 160 °C.

`CCCNC1=NC(c2cccc(-c3cncnc3)c2)(c2ccc(OCCC)c(C)c2)C(=O)N1C` (stereo unspecified) had a melting point of 64 to 66 °C.

With `Cc1nc[nH]c1CSCCNC1=NC(=O)C(C)(C)N1`, the melting point was in the range of 232 to 236 °C.

Turning to `CC1(C)C=C(c2ccccn2)C2=C(CC=CC(C#N)=C2)C1`, the melting point is 120 °C.

Turning to `COC(=O)Cn1c(C(=O)Nc2nc(-c3cc(Br)c(OC)cc3OC)c(CCC3CCCCC3)s2)cc2ccccc21`, the melting point lay in the range of 110 to 114 °C.

Compound `CN(C)c1ccc(OCc2ccncc2)cc1` displayed a melting point of 123 to 125 °C.

`CN(C)c1cnc([N+](=O)[O-])cn1` registered a melting point of 221 to 223 °C.

`CC1(C)C(C=C(Cl)Cl)C1(C#N)C(=O)O` (stereo unspecified) gave a melting point of 128 to 132 °C.

Regarding `COc1cccc2c1CC(C(=O)NCCOc1ccc(C(=O)OC(C)(C)C)cc1)N2S(=O)(=O)c1ccc(-c2ccc(F)cc2F)cc1` (stereo unspecified), the melting point came to 135 °C.

`COC(=O)CSc1cccc(Br)n1`: the melting point was 32 to 34 °C.

`CCc1sc(N2C(=O)c3ccccc3C2=O)c(C(=O)c2ccc(Cl)cc2)c1C`: the melting point was in the range of 115 to 117 °C.
